These results are taken from paper PMC5947712, “High‐Throughput Kinetic Analysis for Target‐Directed Covalent Ligand Discovery” (Angewandte Chemie (International Ed. in English), 2018).

The target of one test is Cdk1‐cyclin A2 (Homo sapiens, UniProt P06493). The test is described as follows: In vitro kinase activity after 24 h incubation of active Cdk1:cyclin A2 with acrylamides. The format is biochemical. To be noted: for inhibition at 500 µM: 0.5 mM, 24 hours incubation, n=3, read-out: % inhibition ± SEM Cdk1. Here is the method:
(§1) Figure 6 a) Sequence alignment of Cdk family. Cys177 is highlighted in yellow. b) Published selectivity profiles of selected Cdk2 inhibitors.29 c) Active Cdk1/Cdk2:cyclin A2 was incubated with acrylamides 1 and 2 (0.5 mM) for 24 hours and then their in vitro kinase activity was measured (n=3). […]
(§2) Tables! 2R6.! Molecular! replacement! was! conducted! on! all! data! sets! using!Phaser[14]/MOLREP[15]!against! apoRCdk2! (PDB:!
(§3) 4EK3)!and!the! model! was! iteratively! refined! using! Phenix.Refine[16]!with! manual! modelling! and! adjustments! carried! out! in!
(§4) COOT[17].! Descriptions! of! the! ligands! and! links! were! generated! with! JLigand[18]!and! refined! with! Refmac[19].! Electron! density! […]
Cdk2! (1! mg)! was! sequentially! incubated! with! aliquots! of! CAK1! (3!×!0.05! mg)! at! r.t.! for! 4! hours! at! a! time! in! 1.5! mL! of! a! 30! mM!
Tris/HCl! buffer! (pH! 7.5)! containing! 10! mM! MgCl2,! 10! mM! ATP! and! 3! mM! DTT.! As! CAK1! appeared! to! become! rapidly! inactiR
vated! in! the! presence! of! pCdk2,! three! repetitions! were! required! to! drive! the! reaction! to! completion.! The! resulting! solution! was!
incubated!with!50!µL!of!glutathioneRSepharose!beads!and!filtered!to!remove!remaining!CAK1.!
Phosphorylation! of! T160! results! in! increased! mobility! of! Cdk2! during! gel! electrophoresis! and! the! reaction! was! monitored! by!
SDSRpage.! The! site! of! modification! was! subsequently! verified! by! western! blot! using! an! antiRT160! antibody! (Cell! Signalling!
2561)!and!complete!monoRmodification!was!confirmed!by!intact!protein!mass!spectrometry.! […]
(§5) initiated!by!addition!of!0.5!mM!ATP!and!0.24!mM!substrate!peptide!([…])!and!the!absorbance!at!340!nm!was!moniR […]
(§6) plate! reader! […]
(§7) was!measured!from!the!gradient!during!the!linear!phase!of!product!accumulation.!! […]
(§8) ments,! the! wavelength! was! adjusted! to! 230! nm! and! elipticity! was! measured! at! […]
(§9) repeats!of!10!s!integrations!per!temperature.!The!meltRtemperature!(Tm)!was!determined!using!Prism!6.0!by!fitting!a!sigmoidal! […]
(§10) The! cell! lysates! were!diluted! to! […] RIPA! lysis! buffer,! as! quantified! by! the! […]

The next test concerns the target T1, Cdk2:cyclin A2 (Homo sapiens, UniProt P24941).
T1 construct: GST (N, cleaved yes); made in house; host or cells: E. coli Tuner(DE3)
The test can be described thus: In vitro kinase activity after 24 h incubation of active Cdk2:cyclin A2 with acrylamides. It is filed as biochemical. Particulars: 0.5 mM, n=3, read-out: % inhibition ± SEM Cdk2. Here is the method: as §1, §2, §3, §4
Cdk2! (1! mg)! was! sequentially! incubated! with! aliquots! of! CAK1! (3!×!0.05! mg)! at! r.t.! for! […]
Phosphorylation! of! […] Cdk2! during! gel! electrophoresis! and! the! reaction! was! monitored! by! […]
as §5, §6, §7, §8, §9, §10

The target of a further test is Cdk2(WT) (Homo sapiens, UniProt P24941). The test can be described thus: qIT thiol consumption assay with Cdk2(WT) (Cys177). The format is binding. More on the design: made in house; host or cells: E. coli Tuner(DE3). Particulars: for k Cdk2(WT) (pseudo-first-order rate constant): compound 0.5 mM, Cdk2(WT) 5 μM, TCEP-agarose 2 % w/v.

“And” between values parts separate entries of the source, which are not always exact repeats. Equal entries are not always repeated.

Chain of Cdk1‐cyclin A2 (P06493 whole entry): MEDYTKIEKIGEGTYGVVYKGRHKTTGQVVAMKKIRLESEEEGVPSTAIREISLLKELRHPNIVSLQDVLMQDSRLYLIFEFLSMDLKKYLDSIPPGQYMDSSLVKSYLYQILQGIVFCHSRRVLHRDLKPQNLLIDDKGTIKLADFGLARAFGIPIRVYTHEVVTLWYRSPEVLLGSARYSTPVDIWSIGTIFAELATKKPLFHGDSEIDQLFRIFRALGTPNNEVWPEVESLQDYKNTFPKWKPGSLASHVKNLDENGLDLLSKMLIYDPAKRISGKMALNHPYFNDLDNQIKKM
Chain of Cdk1‐cyclin A2 (P20248 whole entry partner): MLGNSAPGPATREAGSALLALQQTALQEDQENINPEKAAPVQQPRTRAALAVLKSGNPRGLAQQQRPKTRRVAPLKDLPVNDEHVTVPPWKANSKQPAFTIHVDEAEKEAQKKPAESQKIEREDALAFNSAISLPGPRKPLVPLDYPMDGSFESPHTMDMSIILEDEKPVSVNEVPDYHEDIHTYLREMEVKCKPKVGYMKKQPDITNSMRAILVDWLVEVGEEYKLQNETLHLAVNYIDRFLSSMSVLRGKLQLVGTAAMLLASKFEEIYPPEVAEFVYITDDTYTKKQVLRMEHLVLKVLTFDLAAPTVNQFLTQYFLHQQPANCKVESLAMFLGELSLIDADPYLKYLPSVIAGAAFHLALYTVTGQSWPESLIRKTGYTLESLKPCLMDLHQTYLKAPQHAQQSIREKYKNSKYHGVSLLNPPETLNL

On to `C=CC(=O)N1CCN(C(=O)OC(C)(C)C)c2ccccc21` [Acrylamide 1], for which the inhibition (commonly the drop in the measured response relative to a control, in per cent) at 500 µM on Cdk1‐cyclin A2 turned out to be 2 ± 10%. Besides, at Cdk1‐cyclin A2 (prolonged exposure (24 hours)), the “inhibition of Cdk1‐cyclin A2 in vitro (in words)” value is “failed to inhibit”. For the same compound, the inhibition at 500 µM on Cdk2:cyclin A2 was found to be 83 ± 3%. Further, at Cdk2(WT), the “k Cdk2(WT) (pseudo-first-order rate constant)” value was 0.204 h⁻¹ and the “REF Cdk2(WT) (rate enhancement factor = k protein/k GSH)” value is 5.0.

For `C=CC(=O)N1CCN(C(=O)OC)c2ccccc21` [Acrylamide 2], the inhibition at 500 µM on Cdk1‐cyclin A2 was -2 ± 8%. At Cdk2:cyclin A2, the inhibition at 500 µM stood at 5 ± 6%. At Cdk2(WT), the “k Cdk2(WT) (pseudo-first-order rate constant)” value came out at 0.233 h⁻¹; the “REF Cdk2(WT) (rate enhancement factor = k protein/k GSH)” value is 2.6 and 2.63.
